The text below walks through data of ChEMBL document CHEMBL5131492, “Harringtonine Ester Derivatives with Enhanced Antiproliferative Activities against HL-60 and HeLa Cells” (J Nat Prod, 2022).

One test concerns HL-60. Description: Antiproliferative activity against human HL-60 cells assessed as inhibition of cell growth measured after 68 hrs by MTS assay. Particulars: HL-60, 68 h. The test is classed as functional, cell-based.
The test system of a further test is HeLa. Description: Antiproliferative activity against human HeLa cells assessed as inhibition of cell growth measured after 68 hrs by MTS assay. The test is classed as functional, cell-based.

Bounds are passed on as bounds.

With `COC1=C[C@]23CCCN2CCc2cc4c(cc2[C@@H]3[C@@H]1OC(=O)[C@@](O)(CCC(C)(C)O)CC(=O)O)OCO4`, the IC50 in the test with HL-60 and with HeLa was more than 100000 nM in each case. For the compound `COC1=C[C@]23CCCN2CCc2cc4c(cc2[C@@H]3[C@@H]1OC(=O)[C@@](O)(CCC(C)(C)O)CC(=O)OCC(C)C)OCO4`, the figures for the IC50 in the test on HL-60 and with HeLa were 119 nM and 23800 nM, respectively.

For the compound `CCCCCOC(=O)C[C@](O)(CCC(C)(C)O)C(=O)O[C@@H]1C(OC)=C[C@]23CCCN2CCc2cc4c(cc2[C@H]13)OCO4`, the 50% inhibitory concentration (IC50) in the test with HL-60 came out at 22.7 nM; in the test with HeLa it was 6000 nM. The matching figures for `CCCCCCCCOC(=O)C[C@](O)(CCC(C)(C)O)C(=O)O[C@@H]1C(OC)=C[C@]23CCCN2CCc2cc4c(cc2[C@H]13)OCO4`: 11.8 nM and 2000 nM.

With `COC1=C[C@]23CCCN2CCc2cc4c(cc2[C@@H]3[C@@H]1OC(=O)[C@@](O)(CCC(C)(C)O)CC(=O)OC(C)C)OCO4`, the IC50 in the test on HL-60 is 583 nM; in the test with HeLa it was 60600 nM. For `CCCCOC(=O)C[C@](O)(CCC(C)(C)O)C(=O)O[C@@H]1C(OC)=C[C@]23CCCN2CCc2cc4c(cc2[C@H]13)OCO4` the same measures were 42.4 nM and 10800 nM. On to `CCCCCCCOC(=O)C[C@](O)(CCC(C)(C)O)C(=O)O[C@@H]1C(OC)=C[C@]23CCCN2CCc2cc4c(cc2[C@H]13)OCO4`, for which the IC50 amounted to 9.4 nM in the test with HL-60 and 400 nM in the test on HeLa. As to `CCOC(=O)C[C@](O)(CCC(C)(C)O)C(=O)O[C@@H]1C(OC)=C[C@]23CCCN2CCc2cc4c(cc2[C@H]13)OCO4`, the half-inhibitory concentration (IC50) with HL-60 came out at 186 nM; in the test on HeLa, 24200 nM. As to `CCCCCCOC(=O)C[C@](O)(CCC(C)(C)O)C(=O)O[C@@H]1C(OC)=C[C@]23CCCN2CCc2cc4c(cc2[C@H]13)OCO4`, the IC50 in the test with HL-60 amounted to 9.6 nM; in the test on HeLa it was 1900 nM. For the compound `COC1=C[C@]23CCCN2CCc2cc4c(cc2[C@@H]3[C@@H]1OC(=O)[C@@](O)(CCC(C)(C)O)CC(=O)OC(C)(C)C)OCO4`, the figures for the IC50 with HL-60 and in the test with HeLa were 6200 nM and more than 100000 nM, respectively. The matching figures for `CCCOC(=O)C[C@](O)(CCC(C)(C)O)C(=O)O[C@@H]1C(OC)=C[C@]23CCCN2CCc2cc4c(cc2[C@H]13)OCO4`: 104 nM and 15800 nM. The matching figures for `CCC(C)OC(=O)C[C@](O)(CCC(C)(C)O)C(=O)O[C@@H]1C(OC)=C[C@]23CCCN2CCc2cc4c(cc2[C@H]13)OCO4` (mixture of isomers): 499 nM and 97900 nM.

`COC(=O)C[C@](O)(CCC(C)(C)O)C(=O)O[C@@H]1C(OC)=C[C@]23CCCN2CCc2cc4c(cc2[C@H]13)OCO4` [HARRINGTONINE]: the values for the half-inhibitory concentration (IC50) in the test on HL-60 and with HeLa were 50.5 nM and 4000 nM, respectively. In the case of `COC(=O)C[C@](O)(CCCC(C)(C)O)C(=O)O[C@@H]1C(OC)=C[C@]23CCCN2CCc2cc4c(cc2[C@H]13)OCO4` [OMACETAXINE MEPESUCCINATE], the IC50 in the test with HeLa stood at 1700 nM.
